In patent US10322136B2, “Composition for inhibiting growth or proliferation of chronic myelogenous leukemia cancer stem cells, and screening method therefor” (HIROSHIMA UNIVERSITY, priority 2015, dated 2019):

Columns and labels:
CML-KLS+ cells = assay: Metabolomic analysis of dipeptides in KLS+ cells from treated CML-affected mice; type: in vivo, mouse; details: cefadroxil 36 mg/kg/day oral gavage for 30 days
Protocol: To detect inhibition of dipeptide uptake in vivo, immature KLS^+ cells were isolated from tet-inducible CML-affected (Tal1-tTA^+TRE-BCR-ABL1^+) mice (n=4 mice in each of the three independent experiments), and normal healthy littermate (Tal1-tTA^+) mice (n=6 mice in each of the two independent experiments) that had received vehicle or cefadroxil (36 mgKg^−1day^−1) by oral gavage for 30 days. […] In all cases, isolated cell pellets were frozen at −80° C. immediately after obtaining. Metabolomic profiling was performed by Metabolon Inc. (Durham, N.C.) using ultrahigh-performance liquid chromatography/mass spectroscopy (UPLC/MS/MS) and gas chromatography/MS (GC/MS). Data were compiled using the Metabolon LIMS (Laboratory Information Management System). The UPLC/MS/MS portion of the platform was based on a Waters Acquity UPLC (Waters) and a Q-Exactive high-resolution/accurate mass spectrometer (Thermo Scientific) interfaced with a heated electrospray ionization (HESI-II) source and Orbitrap mass analyzer. GC/MS was performed by a Trace DSQ fast-scanning single-quadrupole mass spectrometer using electron impact ionization (Thermo-Finnigan).

Slc15A2 transporter = target: T1, Slc15A2 transporter (Mus musculus, UniProt Q9ES07); assay: Slc15A2 transporter activity by [3H]GlySar uptake; type: cell-based; details: in the presence of 100 μM cefadroxil; pH 6.0; 60 or 120 min
T1 construct: endogenous in cells; host or cells: primary mouse normal KLS+ and CML KLS+ haematopoietic cells
T1 sequence (Q9ES07 1-729): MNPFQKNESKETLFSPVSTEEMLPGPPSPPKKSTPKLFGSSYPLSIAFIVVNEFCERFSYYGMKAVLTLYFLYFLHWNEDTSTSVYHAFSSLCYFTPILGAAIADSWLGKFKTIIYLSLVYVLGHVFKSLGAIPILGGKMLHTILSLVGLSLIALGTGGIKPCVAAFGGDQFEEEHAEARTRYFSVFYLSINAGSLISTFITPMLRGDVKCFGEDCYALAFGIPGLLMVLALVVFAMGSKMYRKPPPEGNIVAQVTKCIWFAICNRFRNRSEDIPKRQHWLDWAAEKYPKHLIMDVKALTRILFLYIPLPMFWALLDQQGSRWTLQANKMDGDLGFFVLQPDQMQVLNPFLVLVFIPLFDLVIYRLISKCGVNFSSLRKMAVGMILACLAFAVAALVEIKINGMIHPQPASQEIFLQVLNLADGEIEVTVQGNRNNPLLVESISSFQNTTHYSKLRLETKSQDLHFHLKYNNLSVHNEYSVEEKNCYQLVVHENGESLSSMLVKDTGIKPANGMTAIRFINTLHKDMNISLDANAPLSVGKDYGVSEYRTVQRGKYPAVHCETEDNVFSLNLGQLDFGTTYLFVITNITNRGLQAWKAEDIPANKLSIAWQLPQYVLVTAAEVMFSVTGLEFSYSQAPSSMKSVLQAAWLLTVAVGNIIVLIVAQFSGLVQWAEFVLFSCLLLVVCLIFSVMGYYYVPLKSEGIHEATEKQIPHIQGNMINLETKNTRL
Protocol: 6. Analysis of Slc15A2 Transporter Activity by [3H]GlySar Uptake
Slc15A2 transporter activity was determined using a well-established assay measuring [3H]GlySar uptake by cells suspended in an acidic transport medium (pH 6.0). Briefly, normal KLS^+ cells or CML KLS^+ cells (1×10^5) were suspended in a transport medium (125 mM NaCl, 4.8 mM KCl, 5.6 mM D-glucose, 1.2 mM CaCl2-2H2O4, 1.2 mM KH2PO4, 1.2 mM MgSO4-7H2O and 25 mM MES, pH 6.0) in the absence or presence of 100 μM cefadroxil (Sigma-Aldrich). To initiate the transporter reaction, [3H]GlySar (Moravek Biochemicals, Brea, Calif.) was added to the cell suspension. After 60 or 120 min, the radioactivity of [3H]GlySar internalized by cells was measured using a liquid scintillation counter.

AMPK = assay: Duolink in situ PLA, AMPK phosphorylation in LT-CML cancer stem cells; type: cell-based, mouse; details: LT-CML cancer stem cells in vitro
Protocol: To examine phosphorylation of Smad2, Smad3, p38MAPK, AMPK, and S6 ribosomal protein, and Foxo3a-Smad2 and Foxo3a-Smad3 interactions, Duolink® in situ PLA assay (Olink Bioscience) was used. LT-CML stem cells, ST-CML stem cells, CD48^+, MPP, and KLS^− CML cells that were freshly isolated from CML-affected mice, and LT-normal HSCs that were freshly isolated from healthy control littermates, were immediately fixed with 4% paraformaldehyde for 30 min.
For in vitro inhibitor experiments, LT-CML stem cells were incubated in 3% O2 at 37° C. for 30 min with vehicle (control; artificial gastric fluid solution (900 ml ddH2O containing 2.0 g of NaCl, 7 ml of conc. HCl and 3.2 g of pepsin)), 5 μM Ly364947 (TGF-β type I receptor kinase Alk5 inhibitor; Merck), 5 μM SB203580 (p38MAPK inhibitor; LC Laboratories), 5 μM GlySar (dipeptide transporter inhibitor; Sigma-Aldrich), 5 μM cefadroxil (dipeptide transporter inhibitor; Sigma-Aldrich), or 100 nM rapamycin (mTORC1 inhibitor; Cell Signaling Technologies). Treated cells were fixed with 4% paraformaldehyde for 30 min, and treated with 0.25% Triton X-100 for 15 min, washed and blocked by incubation in 5% FBS in TBS for 1 hr.
The proximate binding of these antibodies was then detected using Duolink® in situ PLA system which employs a set of two secondary antibodies in which one is conjugated to a minus strand PLA probe and the other is conjugated to a plus strand PLA probe. Nuclei were stained with DNA marker DAPI (Sigma). Stained slides were mounted using Fluoromount Plus (Diagnostic Biosystems) and fluorescent images were acquired by confocal microscopy (FV10i, Olympus) and Photoshop software (Adobe). The number of fluorescent foci per single cell was quantified using Duolink®Image Tool software (Olink Bioscience).

[1] = system: Foxo3a-/- LT-CML cancer stem cells; assay: Colony-forming capacity of Foxo3a-/- LT-CML cancer stem cells; type: cell-based, mouse; details: cefadroxil treatment in vitro
Protocol: To establish our Foxo3a-deficient tet-inducible CML mouse model, Foxo3a-deficient mice 42 (C57BL/6; F5) were crossed with Tal-tTA and TRE-BCR-ABL1 transgenic mice that were backcrossed for five generations in the C57BL/6 background, respectively. LT-CML stem cells or LT-normal HSCs (1×10^3/plate) were co-cultured on OP-9 stromal cells for 5 days in the presence of either vehicle (control) or a dipeptide transporter inhibitor cefadroxil (5 μM). Cells were harvested, washed with PBS, and plated in semi-solid methylcellulose medium containing SCF, IL-3, IL-6 and erythropoietin (Methocult GF M3434; Stem Cell Technologies). After growth for 7 days in a humidified atmosphere containing 5% CO2 at 37° C., colony numbers were counted under a light microscope.

CC1=C(C(=O)O)N2C(=O)[C@@H](NC(=O)[C@H](N)c3ccc(O)cc3)[C@H]2SC1 [cefadroxil]
levels of several dipeptides in immature CML-KLS+ cells (CML-KLS+ cells): decreased | [3H]GlySar uptake by CML-KLS+ cells (Slc15A2 transporter): markedly decreased | phosphorylation of AMPK (AMPK): increased | number of colonies formed by Foxo3a-/- LT-CML cancer stem cells [1]: not altered
